Measurements as given in patent publication US20090311217A1, “3-SUBSTITUTED-1H-INDOLE COMPOUNDS, THEIR USE AS MTOR KINASE AND PI3 KINASE INHIBITORS, AND THEIR SYNTHESES” (priority 2008, published 2009).

Key:
Assay type in all cases: biochemical
[1] = molecular target: PI3K-alpha (Homo sapiens, UniProt P42336); assay: PI3K-alpha fluorescence polarization assay; conditions: read-out: PI3Kα Avg. IC50
[2] = molecular target: T1, human TOR (Homo sapiens, UniProt P42345); assay: mTOR enzyme assay (DELFIA, His6-S6K substrate); conditions: read-out: mTOR Kinase Avg. IC50
T1 construct: FLAG

[3] = molecular target: PI3K-gamma (Homo sapiens, UniProt P48736); assay: PI3K-gamma fluorescence polarization assay; conditions: PI3Kγ Avg. IC50
PI3K-gamma, sequence (P48736 whole entry, species assumed, the tested form may be a part): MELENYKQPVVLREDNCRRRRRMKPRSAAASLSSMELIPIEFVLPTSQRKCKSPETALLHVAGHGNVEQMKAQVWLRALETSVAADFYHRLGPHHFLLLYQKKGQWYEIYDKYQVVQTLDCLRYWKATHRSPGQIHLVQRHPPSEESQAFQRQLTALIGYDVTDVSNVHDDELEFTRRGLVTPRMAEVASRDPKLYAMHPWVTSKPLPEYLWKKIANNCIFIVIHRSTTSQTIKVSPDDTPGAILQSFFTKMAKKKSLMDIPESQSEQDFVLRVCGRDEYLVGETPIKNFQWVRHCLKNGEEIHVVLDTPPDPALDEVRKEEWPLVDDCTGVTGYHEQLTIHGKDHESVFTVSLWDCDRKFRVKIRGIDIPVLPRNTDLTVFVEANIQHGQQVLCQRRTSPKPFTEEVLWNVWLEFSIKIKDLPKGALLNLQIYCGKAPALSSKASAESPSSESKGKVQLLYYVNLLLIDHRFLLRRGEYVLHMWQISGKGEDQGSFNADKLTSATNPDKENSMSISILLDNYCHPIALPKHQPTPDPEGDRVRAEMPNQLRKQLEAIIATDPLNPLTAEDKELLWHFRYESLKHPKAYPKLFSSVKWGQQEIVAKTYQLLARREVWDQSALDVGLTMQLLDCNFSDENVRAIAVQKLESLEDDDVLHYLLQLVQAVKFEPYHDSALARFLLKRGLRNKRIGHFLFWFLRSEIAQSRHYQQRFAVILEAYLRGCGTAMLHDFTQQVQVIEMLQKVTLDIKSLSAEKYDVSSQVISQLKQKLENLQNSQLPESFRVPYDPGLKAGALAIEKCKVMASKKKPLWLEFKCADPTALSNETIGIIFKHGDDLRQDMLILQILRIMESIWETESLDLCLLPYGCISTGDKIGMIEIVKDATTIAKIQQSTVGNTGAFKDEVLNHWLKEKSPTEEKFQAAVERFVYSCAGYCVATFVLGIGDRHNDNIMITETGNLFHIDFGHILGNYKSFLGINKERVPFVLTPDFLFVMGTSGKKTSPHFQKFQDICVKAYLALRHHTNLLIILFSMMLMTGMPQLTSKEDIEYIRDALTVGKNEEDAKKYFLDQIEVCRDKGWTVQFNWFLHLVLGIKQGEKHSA
In short: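 FP displacement read-out: 100 nM GST-GRP1 PH domain plus 5 nM BODIPY-TMR-IP4 added after EDTA stop. Preceding kinase step: 5 ng enzyme, diC8-PI(4,5)P2 2.5 μM, ATP 25 μM, MgCl2 2.5 mM, HEPES 5 mM pH 7, one hour, 25° C.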

PI3K-alpha, sequence (P42336 whole entry, species assumed): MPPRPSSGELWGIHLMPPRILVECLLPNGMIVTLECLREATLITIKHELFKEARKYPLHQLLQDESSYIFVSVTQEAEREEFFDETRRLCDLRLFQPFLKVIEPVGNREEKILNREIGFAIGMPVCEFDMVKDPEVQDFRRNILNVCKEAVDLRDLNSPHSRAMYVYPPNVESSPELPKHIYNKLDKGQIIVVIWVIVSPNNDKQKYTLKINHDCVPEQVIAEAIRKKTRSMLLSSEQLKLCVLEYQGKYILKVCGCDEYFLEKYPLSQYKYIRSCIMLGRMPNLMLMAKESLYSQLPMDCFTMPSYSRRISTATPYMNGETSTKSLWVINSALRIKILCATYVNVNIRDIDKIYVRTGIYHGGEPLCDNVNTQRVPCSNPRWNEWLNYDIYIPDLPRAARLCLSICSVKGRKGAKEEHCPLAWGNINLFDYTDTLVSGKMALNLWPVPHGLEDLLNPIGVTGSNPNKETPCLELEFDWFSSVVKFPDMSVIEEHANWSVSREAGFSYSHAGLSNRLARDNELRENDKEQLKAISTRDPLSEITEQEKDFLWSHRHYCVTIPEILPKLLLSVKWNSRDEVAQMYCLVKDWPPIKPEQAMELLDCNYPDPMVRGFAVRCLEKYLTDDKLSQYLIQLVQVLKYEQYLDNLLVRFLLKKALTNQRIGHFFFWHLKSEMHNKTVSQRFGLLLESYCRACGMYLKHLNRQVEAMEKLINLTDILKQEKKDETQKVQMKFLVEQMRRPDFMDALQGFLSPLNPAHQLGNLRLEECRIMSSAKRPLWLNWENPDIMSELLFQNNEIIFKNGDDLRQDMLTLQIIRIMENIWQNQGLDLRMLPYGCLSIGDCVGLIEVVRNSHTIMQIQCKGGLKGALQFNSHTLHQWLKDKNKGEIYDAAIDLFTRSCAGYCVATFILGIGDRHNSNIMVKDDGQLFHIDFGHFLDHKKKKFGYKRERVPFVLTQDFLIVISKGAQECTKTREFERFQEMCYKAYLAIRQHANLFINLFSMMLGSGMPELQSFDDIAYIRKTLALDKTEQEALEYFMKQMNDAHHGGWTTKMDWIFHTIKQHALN
PI3K-alpha, sequence (P27986 whole entry partner, species assumed): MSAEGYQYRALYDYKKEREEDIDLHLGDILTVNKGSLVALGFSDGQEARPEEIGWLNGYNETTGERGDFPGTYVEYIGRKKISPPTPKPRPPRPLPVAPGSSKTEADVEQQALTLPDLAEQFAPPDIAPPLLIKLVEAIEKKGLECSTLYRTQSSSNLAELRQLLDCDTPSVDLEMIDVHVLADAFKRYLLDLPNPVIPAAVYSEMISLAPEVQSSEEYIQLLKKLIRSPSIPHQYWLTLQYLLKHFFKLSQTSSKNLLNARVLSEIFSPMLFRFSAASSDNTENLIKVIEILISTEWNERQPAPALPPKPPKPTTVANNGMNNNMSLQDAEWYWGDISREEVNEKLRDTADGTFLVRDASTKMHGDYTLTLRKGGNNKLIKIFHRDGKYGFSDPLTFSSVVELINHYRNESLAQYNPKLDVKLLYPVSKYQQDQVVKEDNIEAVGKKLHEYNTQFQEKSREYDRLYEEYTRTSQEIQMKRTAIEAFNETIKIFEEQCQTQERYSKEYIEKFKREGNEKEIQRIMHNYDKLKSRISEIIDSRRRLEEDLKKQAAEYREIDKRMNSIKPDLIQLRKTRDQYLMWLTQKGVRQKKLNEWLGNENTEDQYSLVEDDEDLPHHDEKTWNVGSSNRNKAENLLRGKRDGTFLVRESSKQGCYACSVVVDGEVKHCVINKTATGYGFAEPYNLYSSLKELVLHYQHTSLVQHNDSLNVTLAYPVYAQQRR

IC50 [1]	IC50 [2]	IC50 [3]	Compound
0.3 nM	15 nM	2.2 nM	CCn1c(C)c(/C=C2\Oc3ccc(NC(=O)Nc4ccc(C(=O)NCCNC)cc4)cc3C2=O)c2cc(OC)ccc21 [Compound 659, 4-[({(2Z)-2-[(1-ethyl-5-methoxy-2-methyl-1H-indol-3-yl)methylene]-3-oxo-2,3-dihydro-1-benzofuran-5-yl}carbamoyl)amino]-N-[2-(methylamino)ethyl]benzamide]
0.3 nM	4 nM	2.95 nM	CNCCNC(=O)c1ccc(NC(=O)Nc2ccc3c(c2)C(=O)/C(=C/c2c(C4CCCCC4)[nH]c4ccc(OC)cc24)O3)cc1 [Compound 660, 4-[({(2Z)-2-[(2-cyclohexyl-5-methoxy-1H-indol-3-yl)methylene]-3-oxo-2,3-dihydro-1-benzofuran-5-yl}carbamoyl)amino]-N-[2-(methylamino)ethyl]benzamide]
0.3 nM	6 nM	2 nM	CNCCNC(=O)c1ccc(NC(=O)Nc2ccc3c(c2)C(=O)/C(=C/c2c(C)n(C)c4ccc(OC)cc24)O3)cc1 [Compound 661, 4-[({(2Z)-2-[(5-methoxy-1,2-dimethyl-1H-indol-3-yl)methylene]-3-oxo-2,3-dihydro-1-benzofuran-5-yl}carbamoyl)amino]-N-[2-(methylamino)ethyl]benzamide]
81.5 nM	1480 nM	3070 nM	CNC(=O)Nc1cc(C)c2c(c1)C(=O)/C(=C/c1c(C)n(CCN3CCN(C)CC3)c3ccc(OC)cc13)O2 [Compound 662, 1-[(2Z)-2-({5-methoxy-2-methyl-1-[2-(4-methylpiperazin-1-yl)ethyl]-1H-indol-3-yl}methylidene)-7-methyl-3-oxo-2,3-dihydro-1-benzofuran-5-yl]-3-methylurea]
5.73 nM	710 nM	42.3 nM	CCn1c(C)c(/C=C2\Oc3ccc(NC(=O)Nc4ccc(CCCCN(C)C)cc4)cc3C2=O)c2cc(OC)ccc21 [Compound 663, 1-{4-[4-(dimethylamino)butyl]phenyl}-3-{(2Z)-2-[(1-ethyl-5-methoxy-2-methyl-1H-indol-3-yl)methylidene]-3-oxo-2,3-dihydro-1-benzofuran-5-yl}urea]
2.05 nM	18 nM	63 nM	CNC(=O)Nc1ccc2c(c1)C(=O)/C(=C/c1c(-c3c(C)nn(C)c3C)n(CCNCCN(C)C)c3ccc(OC)cc13)O2 [Compound 664, 1-[(2Z)-2-{[1-(2-{[2-(dimethylamino)ethyl]amino}ethyl)-5-methoxy-2-(1,3,5-trimethyl-1H-pyrazol-4-yl)-1H-indol-3-yl]methylidene}-3-oxo-2,3-dihydro-1-benzofuran-5-yl]-3-methylurea]
5.5 nM	39 nM	127 nM	CNC(=O)Nc1ccc2c(c1)C(=O)/C(=C/c1c(-c3c(C)nn(C)c3C)n(CCN(C)CCN(C)C)c3ccc(OC)cc13)O2 [Compound 665, 1-[(2Z)-2-{[1-(2-{[2-(dimethylamino)ethyl](methyl)amino}ethyl)-5-methoxy-2-(1,3,5-trimethyl-1H-pyrazol-4-yl)-1H-indol-3-yl]methylidene}-3-oxo-2,3-dihydro-1-benzofuran-5-yl]-3-methylurea]
0.8 nM	34 nM	4.5 nM	CCn1c(C)c(/C=C2\Oc3ccc(NC(=O)Nc4ccc(C(=O)NCCCN(C)C)cc4)cc3C2=O)c2cc(OC)ccc21 [Compound 666, N-[3-(dimethylamino)propyl]-4-[({(2Z)-2-[(1-ethyl-5-methoxy-2-methyl-1H-indol-3-yl)methylidene]-3-oxo-2,3-dihydro-1-benzofuran-5-yl}carbamoyl)amino]benzamide]
1.87 nM	153 nM	11.3 nM	CCn1c(C)c(/C=C2\Oc3ccc(NC(=O)Nc4ccc(OCCN(C)C)cc4)cc3C2=O)c2cc(OC)ccc21 [Compound 667, 1-{4-[2-(dimethylamino)ethoxy]phenyl}-3-{(2Z)-2-[(1-ethyl-5-methoxy-2-methyl-1H-indol-3-yl)methylidene]-3-oxo-2,3-dihydro-1-benzofuran-5-yl}urea]
0.6 nM	4 nM	29 nM	CNCCNC(=O)c1ccc(NC(=O)Nc2ccc3c(c2)C(=O)/C(=C/c2c(C)n(CCN4CCN(C)CC4)c4ccc(OC)cc24)O3)cc1 [Compound 669, 4-({[(2Z)-2-({5-methoxy-2-methyl-1-[2-(4-methylpiperazin-1-yl)ethyl]-1H-indol-3-yl}methylidene)-3-oxo-2,3-dihydro-1-benzofuran-5-yl]carbamoyl}amino)-N-[2-(methylamino)ethyl]benzamide]
3.5 nM	133 nM	20.3 nM	CCn1c(C)c(/C=C2\Oc3ccc(NC(=O)Nc4ccc(CCN(C)C)cc4)cc3C2=O)c2cc(OC)ccc21 [Compound 670, 1-{4-[2-(dimethylamino)ethyl]phenyl}-3-{(2Z)-2-[(1-ethyl-5-methoxy-2-methyl-1H-indol-3-yl)methylidene]-3-oxo-2,3-dihydro-1-benzofuran-5-yl}urea]
4 nM	220 nM	25 nM	CCn1c(C)c(/C=C2\Oc3ccc(NC(=O)Nc4ccc(CCCN(C)C)cc4)cc3C2=O)c2cc(OC)ccc21 [Compound 671, 1-{4-[3-(dimethylamino)propyl]phenyl}-3-{(2Z)-2-[(1-ethyl-5-methoxy-2-methyl-1H-indol-3-yl)methylidene]-3-oxo-2,3-dihydro-1-benzofuran-5-yl}urea]
10.5 nM	27 nM	180 nM	CNCCn1c(-c2c(C)nn(C)c2C)c(/C=C2\Oc3ccc(NC(=O)NC)cc3C2=O)c2cc(OC)ccc21 [Compound 672, 1-[(2Z)-2-({5-methoxy-1-[2-(methylamino)ethyl]-2-(1,3,5-trimethyl-1H-pyrazol-4-yl)-1H-indol-3-yl}methylidene)-3-oxo-2,3-dihydro-1-benzofuran-5-yl]-3-methylurea]
12.5 nM	60 nM	61.5 nM	CNC(=O)Nc1ccc2c(c1)C(=O)/C(=C/c1c(-c3c(C)nn(C)c3C)n(CCN(C)C)c3ccc(OC)cc13)O2 [Compound 673, 1-[(2Z)-2-({1-[2-(dimethylamino)ethyl]-5-methoxy-2-(1,3,5-trimethyl-1H-pyrazol-4-yl)-1H-indol-3-yl}methylidene)-3-oxo-2,3-dihydro-1-benzofuran-5-yl]-3-methylurea]
9 nM	370 nM	40 nM	CCn1c(C)c(/C=C2\Oc3ccc(NC(=O)Nc4ccc(N(C)CCCCN(C)C)cc4)cc3C2=O)c2cc(OC)ccc21 [Compound 675, 1-(4-{[4-(dimethylamino)butyl](methyl)amino}phenyl)-3-{(2Z)-2-[(1-ethyl-5-methoxy-2-methyl-1H-indol-3-yl)methylidene]-3-oxo-2,3-dihydro-1-benzofuran-5-yl}urea]
0.3 nM	7 nM	3.25 nM	CCn1c(C)c(/C=C2\Oc3ccc(NC(=O)Nc4ccc(NC(=O)CCN(C)C)cc4)cc3C2=O)c2cc(OC)ccc21 [Compound 676, N-{4-[({(2Z)-2-[(1-ethyl-5-methoxy-2-methyl-1H-indol-3-yl)methylidene]-3-oxo-2,3-dihydro-1-benzofuran-5-yl}carbamoyl)amino]phenyl}-N3,N3-dimethyl-b-alaninamide]
19 nM	595 nM	144 nM	CCn1c(C)c(/C=C2\Oc3ccc(NC(=O)Nc4ccc(S(=O)(=O)N5CCN(C)CC5)cc4)cc3C2=O)c2cc(OC)ccc21 [Compound 677, 1-{(2Z)-2-[(1-ethyl-5-methoxy-2-methyl-1H-indol-3-yl)methylidene]-3-oxo-2,3-dihydro-1-benzofuran-5-yl}-3-{4-[(4-methylpiperazin-1-yl)sulfonyl]phenyl}urea]
3 nM	130 nM	14.5 nM	CCn1c(C)c(/C=C2\Oc3ccc(NC(=O)Nc4ccc(NCCN(C)C)cc4)cc3C2=O)c2cc(OC)ccc21 [Compound 678, 1-(4-{[2-(dimethylamino)ethyl]amino}phenyl)-3-{(2Z)-2-[(1-ethyl-5-methoxy-2-methyl-1H-indol-3-yl)methylidene]-3-oxo-2,3-dihydro-1-benzofuran-5-yl}urea]
8 nM	370 nM	67.5 nM	CCn1c(C)c(/C=C2\Oc3ccc(NC(=O)Nc4ccc(S(=O)(=O)N(C)CCN(C)C)cc4)cc3C2=O)c2cc(OC)ccc21 [Compound 679, N-[2-(dimethylamino)ethyl]-4-[({(2Z)-2-[(1-ethyl-5-methoxy-2-methyl-1H-indol-3-yl)methylidene]-3-oxo-2,3-dihydro-1-benzofuran-5-yl}carbamoyl)amino]-N-methylbenzenesulfonamide]

Compound	IC50 [1]	IC50 [2]	IC50 [3]
CCn1c(C)c(/C=C2\Oc3ccc(NC(=O)Nc4ccc(OCCCCN(C)C)cc4)cc3C2=O)c2cc(OC)ccc21 [Compound 668, 1-{4-[4-(dimethylamino)butoxy]phenyl}-3-{(2Z)-2-[(1-ethyl-5-methoxy-2-methyl-1H-indol-3-yl)methylidene]-3-oxo-2,3-dihydro-1-benzofuran-5-yl}urea]	2.87 nM	295 nM	12.3 nM
COc1ccc2c(c1)c(/C=C1\Oc3ccc(NC(=O)Nc4ccc(OCCCCN(C)C)cc4)cc3C1=O)c(C)n2CCN1CCN(C)CC1 [Compound 674, 1-{4-[4-(dimethylamino)butoxy]phenyl}-3-[(2Z)-2-({5-methoxy-2-methyl-1-[2-(4-methylpiperazin-1-yl)ethyl]-1H-indol-3-yl}methylidene)-3-oxo-2,3-dihydro-1-benzofuran-5-yl]urea]	10 nM	350 nM	686 nM
